The results in this text go back to US10499637B2, “Compositions comprising flavonoid-containing extracts from plants of the genus citrus and/or isolated citrus flavonoids and specific cationic surface active agents, and said composition for use as an agent for treating infestations with head lice” (MEDA AB, priority 2009, dated 2019).

The subject of assay [1] is Head lice, Pediculus humanus capitis. The assay can be described thus: Test 1: in-vitro assay with head lice, test substances in basic solution. As to conditions: for Vitality of the lice after 120 min: dead / Vitality of the lice after 360 min: dead: number of dead lice of 5 incubated; for Vitality of the lice after 120 min: dead / Vitality of the lice after 360 min: dead / Vitality of the lice after 30 min: immobile / Vitality of the lice after 120 min: mobile / Vitality of the lice after 360 min: mobile: basic solution; for Vitality of the lice after 30 min: immobile: number of immobile lice of 5 incubated; for Vitality of the lice after 30 min: mobile / Vitality of the lice after 120 min: mobile / Vitality of the lice after 360 min: mobile: number of mobile lice of 5 incubated; for Vitality of the lice after 30 min: mobile: basic solution 10% lauryl glucoside, 5% glycerin, pH 6.0. The protocol: Head lice, Pediculus humanus capitis, were obtained by combing infested children from whom assent and consent from the parents had been obtained.
Lice were used for the experiments mostly immediately, but not later than 4 hours after removing from the head. Adult lice, mixed sexes, were fully immersed in the test solutions for 3 to 15 minutes, then thoroughly rinsed with plenty of water to remove any residuals of the test medication. Three replicates of 5 or 10 lice each, plus one control for each batch of lice, were used for any test formulation. The lice were transferred to dry filter paper and kept for observation for up to 24 hours.
The solutions were formulated by addition of the tests substances listed in Table 1 to a basic solution consisting of 10% lauryl glucoside, 5% glycerin and purified water ad 100% and adjusted to pH 6.0 with citric acid. In each test solution 5 lice were incubated, in the controls consisting of the basic solution without any additions 10 lice were incubated.
“Dead” means that neither movements of the legs nor of the intestine were observed.
At 30 min only mobile or immobile lice were observed, whereas dead lice were observed only at 120 and 360 min.

The next assay deals with Aedes aegypti larvae. The assay can be described thus: Naringin against Aedes aegypti larvae, experiments in applicant's laboratory. As to conditions: thousand fold higher concentration of naringin than in the literature, without acetonitrile in the assay. An excerpt:
A putative insecticidal activity of naringin is of interest in the present context.

The structures appear in SMILES notation.

Regarding `COc1ccc([C@@H]2CC(=O)c3c(O)cc(O[C@@H]4O[C@H](CO[C@@H]5O[C@@H](C)[C@H](O)[C@@H](O)[C@H]5O)[C@@H](O)[C@H](O)[C@H]4O)cc3O2)cc1O` [1.0% hesperidin, (2S)-7-((6-O-(6-desoxy-α-L-mannopyranosyl)-β-D-glucopyranosyl)oxy)-2,3-dihydro-5-hydroxy-2-(3-hydroxy-4-methoxyphenyl)-4H-1-benzopyran-4-one], in assay [1], the “Vitality of the lice after 120 min: dead” value is given as 0, the “Vitality of the lice after 360 min: dead” value came out at 0, the “Vitality of the lice after 30 min: immobile” value (from here on “Vitality … immobile”) came out at 0 and the “Vitality of the lice after 30 min: mobile” value amounted to 5. In assay [1], the “Vitality of the lice after 120 min: mobile” value was determined as 5 and the “Vitality of the lice after 360 min: mobile” value is on record as 5.
For the compound `O=C1C[C@@H](c2ccc(O)cc2)Oc2cc(O)cc(O)c21` [1.0% naringenin, (S)-2,3-dihydro-5,7-dihydroxy-2-(4-hydroxyphenyl)-4H-1-benzopyran-4-one], in assay [1], the “Vitality of the lice after 120 min: dead” value came to 0, the “Vitality of the lice after 360 min: dead” value came to 0, the “Vitality … immobile” value is recorded as 0 and the “Vitality of the lice after 30 min: mobile” value amounted to 5. Further, in assay [1], the “Vitality of the lice after 120 min: mobile” value is listed as 5 and the “Vitality of the lice after 360 min: mobile” value is recorded as 5.
In the case of `COc1ccc([C@@H]2CC(=O)c3c(O)cc(O)cc3O2)cc1O` [1.0% hesperetin, (S)-2,3-dihydro-5,7-dihydroxy-2-(3-hydroxy-4-methoxyphenyl)-4H-1-benzopyran-4-one], in assay [1], the “Vitality of the lice after 120 min: dead” value is listed as 0, the “Vitality of the lice after 360 min: dead” value was 0, the “Vitality … immobile” value amounted to 0 and the “Vitality of the lice after 30 min: mobile” value was 5. For the same compound, in assay [1], the “Vitality of the lice after 120 min: mobile” value worked out at 5 and the “Vitality of the lice after 360 min: mobile” value was 5.
For `CCCCCCCCCCCCCCCCCCCCCC[N+](C)(C)C.[Cl-]` [2.0% behentrim., behentrimonium chloride], in assay [1], the “Vitality of the lice after 120 min: dead” value is given as 0, the “Vitality of the lice after 360 min: dead” value stood at 0, the “Vitality … immobile” value worked out at 0 and the “Vitality of the lice after 30 min: mobile” value is reported as 5. In assay [1], the “Vitality of the lice after 120 min: mobile” value worked out at 5 and the “Vitality of the lice after 360 min: mobile” value was determined as 5.
Turning to `C[C@@H]1O[C@@H](O[C@H]2[C@H](Oc3cc(O)c4c(c3)O[C@H](c3ccc(O)cc3)CC4=O)O[C@H](CO)[C@@H](O)[C@@H]2O)[C@H](O)[C@H](O)[C@H]1O` [1.0% naringin, 7-[[2-O-(6-desoxy-α-L-mannopyra-nosyl)-β-D-glucopyranosyl]oxy]-2,3-dihydro-5-hydroxy-2-(4-hydroxy-phenyl)-4H-1-benzopyran-4-one], the “killing of Aedes aegypti larvae” value with Aedes aegypti larvae is on record as “did not kill”. Further, in assay [1], the “Vitality of the lice after 120 min: dead” value is on record as 0, the “Vitality of the lice after 360 min: dead” value worked out at 0, the “Vitality … immobile” value was determined as 0 and the “Vitality of the lice after 30 min: mobile” value is on record as 5. Moreover, in assay [1], the “Vitality of the lice after 120 min: mobile” value was determined as 5 and the “Vitality of the lice after 360 min: mobile” value stood at 5.
Regarding `CCCCCCCCCCCCCCCC(=O)NCCC[N+](C)(C)C.[Cl-]` [2.0% palmitamidopr., palmitamidopropyltrimonium chloride], in assay [1], the “Vitality of the lice after 120 min: dead” value is 0, the “Vitality of the lice after 360 min: dead” value is recorded as 1, the “Vitality … immobile” value is 0 and the “Vitality of the lice after 30 min: mobile” value is listed as 5. For the same compound, in assay [1], the “Vitality of the lice after 120 min: mobile” value is listed as 5 and the “Vitality of the lice after 360 min: mobile” value is on record as 4.
